Laboratory results reported in US4450269A, “Mono-5-substituted-3-chloro-4H-1,2,6-thiadiazin-4-one antifungal agents” (FMC Corporation, priority 1980, dated 1984).
Where a name gives a salt, the structure may show the parent alone.

How the values were obtained:
Erysiphe polygoni [1] = assay: Spore germination test; format: cell-based; details: EP, 48 hours
Procedure, shortened: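 Compound was delivered in acetone into water agar at final 40, 10, 2.5 and 1 ppm. Alternaria solani and Botrytis cinerea spores were applied as sterile-water suspensions, while Erysiphe polygoni and Uromyces phaseoli spores were brushed on from infected leaves. After 48 h at 24° C., percentage germination was converted to a rating.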

Rhizoctonia solani = assay: Mycelial growth test; format: cell-based; details: RS; for Percent Fungus Growth Inhibition: 72 hours; for inhibition at 5 ppm / inhibition at 10 ppm / inhibition at 20 ppm / inhibition at 40 ppm: Rhizoctonia solani, 72 h, read-out: Percent Fungus Growth Inhibition
Excerpt: | RS = Rhizoctonia solani

Erysiphe polygoni [2] = assay: whole plant or invertebrate; details: foliar, 24 h, read-out: Percent Disease Control, curative, bean powdery mildew

Molecule: 3-chloro-5-(bromophenoxy)-4H-1,2,6-thiadiazin-4-one [Compound 33]
- Spore Germination Rating (Erysiphe polygoni [1]; 1.0 ppm): 0 (0-10)
- Spore Germination Rating (Erysiphe polygoni [1]; 2.5 ppm): 0 (0-10)
- Spore Germination Rating (Erysiphe polygoni [1]; 10 ppm): 0 (0-10)
- Spore Germination Rating (Erysiphe polygoni [1]; 40 ppm): 0 (0-10)
- Percent Fungus Growth Inhibition (Rhizoctonia solani; 5 ppm): 31%
- Percent Fungus Growth Inhibition (Rhizoctonia solani; 10 ppm): 42%
- Percent Fungus Growth Inhibition (Rhizoctonia solani; 20 ppm): 64%
- Percent Fungus Growth Inhibition (Rhizoctonia solani; 40 ppm): 100%

Molecule: 3-chloro-5-[methylaminocarbonyloxy)phenoxyl]-4H-1,2,6-thiadiazin-4-one [Compound 36]
- Spore Germination Rating (Erysiphe polygoni [1]; 1.0 ppm): 4 (80-100)
- Spore Germination Rating (Erysiphe polygoni [1]; 2.5 ppm): 3 (60-80)
- Spore Germination Rating (Erysiphe polygoni [1]; 10 ppm): 1 (10-40)
- Spore Germination Rating (Erysiphe polygoni [1]; 40 ppm): 1 (10-40)
- Percent Fungus Growth Inhibition (Rhizoctonia solani; 5 ppm): 0%
- Percent Fungus Growth Inhibition (Rhizoctonia solani; 10 ppm): 4%
- Percent Fungus Growth Inhibition (Rhizoctonia solani; 20 ppm): 42%
- Percent Fungus Growth Inhibition (Rhizoctonia solani; 40 ppm): 87%

Molecule: O=c1c(Cl)nsnc1Oc1ccccc1 [Compound 2, 3-chloro-5-phenoxy-4H--1,2,6-thiadiazin-4-one]
- Spore Germination Rating (Erysiphe polygoni [1]; 1.0 ppm): 4 (80-100)
- Spore Germination Rating (Erysiphe polygoni [1]; 2.5 ppm): 4 (80-100)
- Spore Germination Rating (Erysiphe polygoni [1]; 10 ppm): 3 (60-80)
- Spore Germination Rating (Erysiphe polygoni [1]; 40 ppm): 1 (10-40)
- inhibition at 5 ppm (Rhizoctonia solani; 5 ppm): 0%
- inhibition at 10 ppm (Rhizoctonia solani; 10 ppm): 42%
- inhibition at 20 ppm (Rhizoctonia solani; 20 ppm): 100%
- inhibition at 40 ppm (Rhizoctonia solani; 40 ppm): 78%
- pest or weed control at 150 ppm (Erysiphe polygoni [2]): 100%

Molecule: Cc1ccc(Oc2nsnc(Cl)c2=O)cc1 [Compound 3, 3-chloro-5-(4-methylphenoxy)-4H--1,2,6-thiadiazin-4-one]
- Spore Germination Rating (Erysiphe polygoni [1]; 1.0 ppm): 4 (80-100)
- Spore Germination Rating (Erysiphe polygoni [1]; 2.5 ppm): 4 (80-100)
- Spore Germination Rating (Erysiphe polygoni [1]; 10 ppm): 4 (80-100)
- Spore Germination Rating (Erysiphe polygoni [1]; 40 ppm): 1 (10-40)
- inhibition at 5 ppm (Rhizoctonia solani; 5 ppm): 0%
- inhibition at 10 ppm (Rhizoctonia solani; 10 ppm): 20%
- inhibition at 20 ppm (Rhizoctonia solani; 20 ppm): 56%
- inhibition at 40 ppm (Rhizoctonia solani; 40 ppm): 100%
- pest or weed control at 150 ppm (Erysiphe polygoni [2]): 0%

Molecule: CC(C)(C)c1ccc(Oc2nsnc(Cl)c2=O)cc1 [Compound 4, 3-chloro-5-(4-tert-butylphnoxy)-4H--1,2,6-thiadiazin-4-one]
- Spore Germination Rating (Erysiphe polygoni [1]; 1.0 ppm): 4 (80-100)
- Spore Germination Rating (Erysiphe polygoni [1]; 2.5 ppm): 3 (60-80)
- Spore Germination Rating (Erysiphe polygoni [1]; 10 ppm): 2 (40-60)
- Spore Germination Rating (Erysiphe polygoni [1]; 40 ppm): 0 (0-10)
- inhibition at 5 ppm (Rhizoctonia solani; 5 ppm): 0%
- inhibition at 10 ppm (Rhizoctonia solani; 10 ppm): 0%
- inhibition at 20 ppm (Rhizoctonia solani; 20 ppm): 0%
- inhibition at 40 ppm (Rhizoctonia solani; 40 ppm): 0%
- pest or weed control at 150 ppm (Erysiphe polygoni [2]): 100%

Molecule: COc1ccc(Oc2nsnc(Cl)c2=O)cc1 [Compound 5, 3-chloro-5-(4-methoxyphenoxy)4H--1,2,6-thiadiazin-4-one]
- Spore Germination Rating (Erysiphe polygoni [1]; 1.0 ppm): 4 (80-100)
- Spore Germination Rating (Erysiphe polygoni [1]; 2.5 ppm): 4 (80-100)
- Spore Germination Rating (Erysiphe polygoni [1]; 10 ppm): 4 (80-100)
- Spore Germination Rating (Erysiphe polygoni [1]; 40 ppm): 0 (0-10)
- inhibition at 5 ppm (Rhizoctonia solani; 5 ppm): 0%
- inhibition at 10 ppm (Rhizoctonia solani; 10 ppm): 0%
- inhibition at 20 ppm (Rhizoctonia solani; 20 ppm): 38%
- inhibition at 40 ppm (Rhizoctonia solani; 40 ppm): 64%
- pest or weed control at 150 ppm (Erysiphe polygoni [2]): 0%

Molecule: CCCCOc1ccc(Oc2nsnc(Cl)c2=O)cc1 [Compound 6, 3-chloro-5-(4-n-butoxyphenoxy)-4H--1,2,6-thiadiazin-4-one]
- Spore Germination Rating (Erysiphe polygoni [1]; 1.0 ppm): 0 (0-10)
- Spore Germination Rating (Erysiphe polygoni [1]; 2.5 ppm): 0 (0-10)
- Spore Germination Rating (Erysiphe polygoni [1]; 10 ppm): 0 (0-10)
- Spore Germination Rating (Erysiphe polygoni [1]; 40 ppm): 0 (0-10)
- inhibition at 5 ppm (Rhizoctonia solani; 5 ppm): 0%
- inhibition at 10 ppm (Rhizoctonia solani; 10 ppm): 0%
- inhibition at 20 ppm (Rhizoctonia solani; 20 ppm): 0%
- inhibition at 40 ppm (Rhizoctonia solani; 40 ppm): 20%
- pest or weed control at 150 ppm (Erysiphe polygoni [2]): 100%

Molecule: CCOC(=O)c1ccc(Oc2nsnc(Cl)c2=O)cc1 [Compound 7, 3-chloro-5-(4-ethoxycarbonylphenoxy)-4H--1,2,6-thiadiazin-4-one]
- Spore Germination Rating (Erysiphe polygoni [1]; 1.0 ppm): 4 (80-100)
- Spore Germination Rating (Erysiphe polygoni [1]; 2.5 ppm): 3 (60-80)
- Spore Germination Rating (Erysiphe polygoni [1]; 10 ppm): 2 (40-60)
- Spore Germination Rating (Erysiphe polygoni [1]; 40 ppm): 0 (0-10)
- inhibition at 5 ppm (Rhizoctonia solani; 5 ppm): 7%
- inhibition at 10 ppm (Rhizoctonia solani; 10 ppm): 33%
- inhibition at 20 ppm (Rhizoctonia solani; 20 ppm): 53%
- inhibition at 40 ppm (Rhizoctonia solani; 40 ppm): 76%
- pest or weed control at 150 ppm (Erysiphe polygoni [2]): 0%

Molecule: CC(=O)Nc1ccc(Oc2nsnc(Cl)c2=O)cc1 [Compound 8, 5-(4-acetylaminophenoxy)-3-chloro-4H--1,2,6-thiadiazin-4-one]
- Spore Germination Rating (Erysiphe polygoni [1]; 1.0 ppm): 4 (80-100)
- Spore Germination Rating (Erysiphe polygoni [1]; 2.5 ppm): 4 (80-100)
- Spore Germination Rating (Erysiphe polygoni [1]; 10 ppm): 4 (80-100)
- Spore Germination Rating (Erysiphe polygoni [1]; 40 ppm): 2 (40-60)
- inhibition at 5 ppm (Rhizoctonia solani; 5 ppm): 0%
- inhibition at 10 ppm (Rhizoctonia solani; 10 ppm): 0%
- inhibition at 20 ppm (Rhizoctonia solani; 20 ppm): 7%
- inhibition at 40 ppm (Rhizoctonia solani; 40 ppm): 42%
- pest or weed control at 150 ppm (Erysiphe polygoni [2]): 0%

Molecule: O=c1c(Cl)nsnc1Oc1ccc([N+](=O)[O-])cc1 [Compound 9, 3-chloro-5-(4-nitrophenoxy)-4H--1,2,6-thiadiazin-4-one]
- Spore Germination Rating (Erysiphe polygoni [1]; 1.0 ppm): 4 (80-100)
- Spore Germination Rating (Erysiphe polygoni [1]; 2.5 ppm): 4 (80-100)
- Spore Germination Rating (Erysiphe polygoni [1]; 10 ppm): 4 (80-100)
- Spore Germination Rating (Erysiphe polygoni [1]; 40 ppm): 4 (80-100)
- inhibition at 5 ppm (Rhizoctonia solani; 5 ppm): 13%
- inhibition at 10 ppm (Rhizoctonia solani; 10 ppm): 42%
- inhibition at 20 ppm (Rhizoctonia solani; 20 ppm): 69%
- inhibition at 40 ppm (Rhizoctonia solani; 40 ppm): 78%
- pest or weed control at 150 ppm (Erysiphe polygoni [2]): 0%

Molecule: N#Cc1ccc(Oc2nsnc(Cl)c2=O)cc1 [Compound 10, 3-chloro-5-(4-cyanophenoxy)-4H--1,2,6-thiadiazin-4-one]
- Spore Germination Rating (Erysiphe polygoni [1]; 1.0 ppm): 2 (40-60)
- Spore Germination Rating (Erysiphe polygoni [1]; 2.5 ppm): 2 (40-60)
- Spore Germination Rating (Erysiphe polygoni [1]; 10 ppm): 2 (40-60)
- Spore Germination Rating (Erysiphe polygoni [1]; 40 ppm): 1 (10-40)
- inhibition at 5 ppm (Rhizoctonia solani; 5 ppm): 9%
- inhibition at 10 ppm (Rhizoctonia solani; 10 ppm): 13%
- inhibition at 20 ppm (Rhizoctonia solani; 20 ppm): 100%
- inhibition at 40 ppm (Rhizoctonia solani; 40 ppm): 100%
- pest or weed control at 150 ppm (Erysiphe polygoni [2]): 0%

Molecule: O=c1c(Cl)nsnc1Oc1ccc(F)cc1 [Compound 11, 3-chloro-5-(4-fluorophenoxy)-4H--1,2,6-thiadiazin-4-one]
- Spore Germination Rating (Erysiphe polygoni [1]; 1.0 ppm): 0 (0-10)
- Spore Germination Rating (Erysiphe polygoni [1]; 2.5 ppm): 0 (0-10)
- Spore Germination Rating (Erysiphe polygoni [1]; 10 ppm): 0 (0-10)
- Spore Germination Rating (Erysiphe polygoni [1]; 40 ppm): 0 (0-10)
- inhibition at 5 ppm (Rhizoctonia solani; 5 ppm): 0%
- inhibition at 10 ppm (Rhizoctonia solani; 10 ppm): 38%
- inhibition at 20 ppm (Rhizoctonia solani; 20 ppm): 76%
- inhibition at 40 ppm (Rhizoctonia solani; 40 ppm): 91%
- pest or weed control at 150 ppm (Erysiphe polygoni [2]): 100%

Molecule: O=c1c(Cl)nsnc1Oc1ccc(Cl)cc1 [Compound 12, 3-chloro-5-(4-chlorophenoxy)-4H--1,2,6-thiadiazin-4-one]
- Spore Germination Rating (Erysiphe polygoni [1]; 1.0 ppm): 4 (80-100)
- Spore Germination Rating (Erysiphe polygoni [1]; 2.5 ppm): 4 (80-100)
- Spore Germination Rating (Erysiphe polygoni [1]; 10 ppm): 2 (40-60)
- Spore Germination Rating (Erysiphe polygoni [1]; 40 ppm): 0 (0-10)
- inhibition at 5 ppm (Rhizoctonia solani; 5 ppm): 20%
- inhibition at 10 ppm (Rhizoctonia solani; 10 ppm): 58%
- inhibition at 20 ppm (Rhizoctonia solani; 20 ppm): 64%
- inhibition at 40 ppm (Rhizoctonia solani; 40 ppm): 100%
- pest or weed control at 150 ppm (Erysiphe polygoni [2]): 50%

Molecule: O=c1c(Cl)nsnc1Oc1cccc(Cl)c1 [Compound 13, 3-chloro-5-(3-chlorophenoxy)-4H--1,2,6-thiadiazin-4-one]
- Spore Germination Rating (Erysiphe polygoni [1]; 1.0 ppm): 4 (80-100)
- Spore Germination Rating (Erysiphe polygoni [1]; 2.5 ppm): 2 (40-60)
- Spore Germination Rating (Erysiphe polygoni [1]; 10 ppm): 0 (0-10)
- Spore Germination Rating (Erysiphe polygoni [1]; 40 ppm): 0 (0-10)
- inhibition at 5 ppm (Rhizoctonia solani; 5 ppm): 24%
- inhibition at 10 ppm (Rhizoctonia solani; 10 ppm): 53%
- inhibition at 20 ppm (Rhizoctonia solani; 20 ppm): 69%
- inhibition at 40 ppm (Rhizoctonia solani; 40 ppm): 76%
- pest or weed control at 150 ppm (Erysiphe polygoni [2]): 100%

Molecule: O=c1c(Cl)nsnc1Oc1ccccc1Cl [Compound 14, 3-chloro-5-(2-chlorophenoxy)-4H--1,2,6-thiadiazin-4-one]
- Spore Germination Rating (Erysiphe polygoni [1]; 1.0 ppm): 4 (80-100)
- Spore Germination Rating (Erysiphe polygoni [1]; 2.5 ppm): 4 (80-100)
- Spore Germination Rating (Erysiphe polygoni [1]; 10 ppm): 2 (40-60)
- Spore Germination Rating (Erysiphe polygoni [1]; 40 ppm): 0 (0-10)
- inhibition at 5 ppm (Rhizoctonia solani; 5 ppm): 53%
- inhibition at 10 ppm (Rhizoctonia solani; 10 ppm): 56%
- inhibition at 20 ppm (Rhizoctonia solani; 20 ppm): 76%
- inhibition at 40 ppm (Rhizoctonia solani; 40 ppm): 91%
- pest or weed control at 150 ppm (Erysiphe polygoni [2]): 50%

Molecule: O=c1c(Cl)nsnc1Oc1cccc(Cl)c1Cl [Compound 19, 3-chloro-5-(2,3-dichlorophenoxy)-4H--1,2,6-thiadiazin-4-one]
- Spore Germination Rating (Erysiphe polygoni [1]; 1.0 ppm): 3 (60-80)
- Spore Germination Rating (Erysiphe polygoni [1]; 2.5 ppm): 1 (10-40)
- Spore Germination Rating (Erysiphe polygoni [1]; 10 ppm): 0 (0-10)
- Spore Germination Rating (Erysiphe polygoni [1]; 40 ppm): 0 (0-10)
- inhibition at 5 ppm (Rhizoctonia solani; 5 ppm): 29%
- inhibition at 10 ppm (Rhizoctonia solani; 10 ppm): 47%
- inhibition at 20 ppm (Rhizoctonia solani; 20 ppm): 69%
- inhibition at 40 ppm (Rhizoctonia solani; 40 ppm): 82%

Molecule: Nc1ccc(Oc2nsnc(Cl)c2=O)cc1 [Compound 27, 5-(4-aminophenoxy)-3-chloro-4H--1,2,6-thiadiazine-4-one hydrochloride]
- Percent Fungus Growth Inhibition (Rhizoctonia solani; 10 ppm, hydrochloride): 31%
- Percent Fungus Growth Inhibition (Rhizoctonia solani; 20 ppm, hydrochloride): 24%
- Percent Fungus Growth Inhibition (Rhizoctonia solani; 40 ppm, hydrochloride): 64%

Molecule: Cc1cc(Oc2nsnc(Cl)c2=O)cc(C)c1Cl [Compound 59, 3-chloro-5-[(4-chloro-3,5-dimethyl)phenoxy]-4H--1,2,6-thiadiazin-4-one]
- Spore Germination Rating (Erysiphe polygoni [1]; 1.0 ppm): 2 (40-60)
- Spore Germination Rating (Erysiphe polygoni [1]; 2.5 ppm): 1 (10-40)
- Spore Germination Rating (Erysiphe polygoni [1]; 10 ppm): 1 (10-40)
- Spore Germination Rating (Erysiphe polygoni [1]; 40 ppm): 1 (10-40)
- inhibition at 5 ppm (Rhizoctonia solani; 5 ppm): 33%
- inhibition at 10 ppm (Rhizoctonia solani; 10 ppm): 24%
- inhibition at 20 ppm (Rhizoctonia solani; 20 ppm): 33%
- inhibition at 40 ppm (Rhizoctonia solani; 40 ppm): 69%

Molecule: Cc1cc(Oc2nsnc(Cl)c2=O)cc(C)c1Br [Compound 60, 3-[(4-bromo-3,5-dimethyl)-phenoxy]-5-chloro-4H--1,2,6-thiadiazin-4-one]
- Spore Germination Rating (Erysiphe polygoni [1]; 1.0 ppm): 2 (40-60)
- Spore Germination Rating (Erysiphe polygoni [1]; 2.5 ppm): 1 (10-40)
- Spore Germination Rating (Erysiphe polygoni [1]; 10 ppm): 1 (10-40)
- Spore Germination Rating (Erysiphe polygoni [1]; 40 ppm): 0 (0-10)
- inhibition at 5 ppm (Rhizoctonia solani; 5 ppm): 42%
- inhibition at 10 ppm (Rhizoctonia solani; 10 ppm): 31%
- inhibition at 20 ppm (Rhizoctonia solani; 20 ppm): 42%
- inhibition at 40 ppm (Rhizoctonia solani; 40 ppm): 56%
